Laboratory results as given in patent US11465987B2, “Compounds for treatment of cancer” (ONCTERNAL THERAPEUTICS, INC., priority 2012, dated 2022).
Read-outs that look alike come from different tables or passages of the source.

Key:
[1] = Rotarod test (in vivo neurotoxicity); parameters: species or system mouse; details: ICR mice, i.p. daily; 1h 5 or 15 mg/kg, vinblastine 0.5 mg/kg
Procedure: ICR mice received training three times a day for two days to enable them to stay on the rotating rod for >120 seconds at 12 rpm. Mice were then randomized by the length of time that they could stay on the rotating rod and divided into 7-8 mice per group. […] The rotarod test was performed twice a week. […] The rod speed was increased from […] to 40 rpm over a period of 5 min. Performance was measured as the length of time that a mouse could stay on the rotating rod.

[2] = system: PC-3 human prostate cancer cell line; experiment: cells; details: Homo sapiens
Excerpt: (§1) Cells were stained with SRB solution.

[3] = system: PC-3 xenograft; experiment: In vivo PC-3 prostate tumor xenograft; details: for mice that lost more than 15% body weight: PC-3 xenograft, 15 mg/kg i.p.; for tumor volume at day 21: control 680 mm^3
[4] = system: tubulin (colchicine, vinblastine and paclitaxel binding sites); experiment: MS competition binding assay; details: competitive mass binding assay
Excerpt: Each reaction was run in triplicate.

[5] = system: Bovine brain tubulin; experiment: In vitro tubulin polymerization assay (bovine brain tubulin); format: biochemical; details: 10 μM
Procedure: The spectrophotometer was maintained at 37° C. for tubulin polymerization.

[6] = system: melanoma and prostate cancer cell lines; experiment: Antiproliferative activity summarised over the cell line panel (range or average); format: cell-based; details: read-out: IC50 (range over tested cell lines)
[7] = system: NCI/ADR-RES (P-gp over-expressing resistant line of OVCAR-8); experiment: Cytotoxicity (SRB) assay, NCI/ADR-RES; format: cell-based, human
[8] = Pharmacokinetic study in ICR mice; details: mice, 15 mg/kg i.v.
[9] = system: A375 human melanoma xenograft; experiment: In vivo A375 human melanoma xenograft
[10] = system: MES-SA/DX5 cells; experiment: Growth inhibition (SRB) assay, MES-SA/Dx5; format: cell-based; details: ratio of IC50 MES-SA/DX5 to MES-SA
[11] = system: A375MA2 melanoma cell line; experiment: Cytotoxicity assay, A375MA2; format: cell-based; details: Table 14B, n = 3; read-out: IC50 ± SEM, A375MA2
[12] = system: WM-164 melanoma cells; experiment: Microtubule imaging (immunofluorescence); format: cell-based, human; details: WM-164 cells, 18 h
Excerpt: Primary antibody for tubulin and fluorescence-labeled secondary antibody were subsequently added to the cells. Cell nuclei were stained by DAPI. Whole Cell Stain Green was also applied to all cells. All images were acquired with an Olympus IX71 inverted fluorescence microscope (Olympus Corp., Tokyo, Japan) with overlays from separate images of tubulin (red), nuclei (blue), and whole cells (green).

[13] = system: OVCAR-8 human ovarian cell line; experiment: Cytotoxicity (SRB) assay, OVCAR-8; format: cell-based; details: Table 14B, parental cell line, read-out: IC50 ± SEM, OVCAR-8
[14] = system: HEK293-pcDNA3.1 cells; experiment: Cytotoxicity assay, HEK293-pcDNA3.1 (parental line of the MRP/BCRP sublines); format: cell-based; details: Table 14B; parental cell line; read-out: IC50 ± SEM, HEK293-pcDNA3.1
[15] = system: B16-F1 melanoma tumors; experiment: In vivo B16-F1 melanoma allograft; parameters: species or system mouse
Procedure: Female C57/BL mice, age 4-6 weeks, were purchased from Harlan Laboratories (Harlan Laboratories Inc., Indianapolis, Ind.). The animal housing met the Association for Assessment and Accreditation and Laboratory Animal Care specifications. All of the procedures were conducted in accordance with guidelines of our Institutional Animal Care and Use Committee.
Tumor volume was expressed in cubic millimeters.

[16] = system: MDA-MB-435/LCCMDR1 multidrug-resistant melanoma cells; experiment: Cytotoxicity (SRB) assay, MDA-MB-435/LCCMDR1; format: cell-based; details: for P-gp substrate / multidrug resistance in words: MDR melanoma line vs sensitive parent line; for IC50: Homo sapiens
[17] = system: A375 human melanoma cell line; experiment: Cytotoxicity (SRB) assay, A375; format: cell-based; details: Homo sapiens, A-375, Table 14D; read-out: IC50 ± SEM, A375 (converted)
[18] = system: DU 145 human prostate cancer cell line; experiment: Cytotoxicity (SRB) assay, DU 145; format: cell-based; details: Homo sapiens
Excerpt: as §1

[19] = system: MDA-MB-435 parental nonresistant melanoma cells; experiment: Cytotoxicity (SRB) assay, MDA-MB-435; format: cell-based; details: Homo sapiens, Table 14D, read-out: IC50 ± SEM, MDA-MB-435 (converted)
[20] = system: DU-145/TXR cells; experiment: Growth inhibition, DU-145/TXR; format: cell-based; details: Homo sapiens
[21] = system: PPC-1 human prostate cancer cell line; experiment: Cytotoxicity (SRB) assay, PPC-1; format: cell-based; details: Homo sapiens
Excerpt: as §1

[22] = system: LNCaP human prostate cancer cell line; experiment: Cytotoxicity (SRB) assay, LNCaP; format: cell-based; details: Homo sapiens, LNCaP, Table 13A; read-out: inhibitory effects, LNCaP
Excerpt: as §1

[23] = system: PC-3_TxR paclitaxel-resistant prostate cancer cells (P-gp over-expressing); experiment: cells; details: Homo sapiens, PC3-TxR
[24] = system: confluent HUVEC monolayers; experiment: Endothelial monolayer permeability assay; details: FITC-dextran leakage, 1, 2, 4 h
[25] = system: PC-3_TxR xenograft; experiment: In vivo PC-3/TxR xenograft; details: for tumor growth inhibition (TGI): PC-3/TxR tumors
[26] = read-out: IC50 PC-3, SRB assay, prostate cancer PC-3
[27] = Melanoma (A375) xenograft, 15 mg/kg i.p.
[28] = Table 14D, read-out: IC50 ± SEM, MDA-MB-435/LCC-6MDR1 (converted)
[29] = DU-145, Table 13A, read-out: inhibitory effects, DU145
[30] = DU-145, Table 13A, read-out: inhibitory effects, DU-145/TXR
[31] = PPC-1, Table 13A, read-out: inhibitory effects, PPC1
[32] = read-out: inhibitory effects, PC3, Table 13A
[33] = read-out: inhibitory effects, PC3/TXR

Structure (SMILES): COc1cc(C(=O)c2csc(-c3ccccc3)n2)cc(OC)c1OC [1h, (2-Phenyl-thiazol-4-yl)-(3,4,5-trimethoxy-phenyl)-methanone]
- rotarod performance in words [1]: no significant difference
- IC50 [2, 26]: 29.1 ± 1.1 nM
- IC50 ([2]; read-out: IC50 in PC3, Table 16B): 21 nM
- IC50 ([2]; read-out: IC50 ± SEM, PC-3, Table 21, n = 3): 21 ± 1 nM
- % T/C ([3]; PC-3, 5 mg/kg i.p.): 29%
- % T/C ([3]; PC-3, 15 mg/kg i.p.): 4%
- mice that lost more than 15% body weight [3]: 1 of 8
- competition for tubulin binding sites in words [4]: specifically competed with colchicine binding to tubulin
- inhibition of tubulin polymerization ([5]; absorbance 340 nm over 15 min): 90%
- inhibition of tubulin polymerization ([5]; after 20 min incubation, vs vehicle): 47%
- dose not causing greater than 10% loss of body weight (ICR, mouse, in vivo, ip): up to 30 mg/kg

Structure (SMILES): COc1cc(C(=NC#N)c2csc(-c3ccccc3)n2)cc(OC)c1OC [2j, N-((2-phenylthiazol-4-yl)(3,4,5-trimethoxyphenyl)methylene)cyanamide]
- IC50 [6]: 20 to 60 nM
- IC50 [2, 26]: 27 ± 1 nM
- Resistance factor ([7]; NCI/ADR-RES relative to OVCAR-8): 0.4

Structure (SMILES): COc1cc(C(=O)c2csc(-c3ccc(F)cc3)n2)cc(OC)c1OC [2k]
- AUC [8]: 2200 ng·h/mL
- % T/C ([3]; PC-3, 5 mg/kg i.p.): 21%
- tumor volume at day 21 ([3]; PC-3, 5 mg/kg i.p. daily): 269 mm^3
- % T/C ([3]; PC-3, 15 mg/kg i.p.): 24%
- tumor volume at day 21 ([3]; PC-3, 15 mg/kg i.p. daily): 292 mm^3
- mice that lost more than 15% body weight [3]: 2 out of 7
- % T/C [9, 27]: 28%
- T-C [9, 27]: 11 days
- inhibition of tubulin polymerization ([5]; absorbance 340 nm over 15 min): 90%
- dose not causing greater than 10% loss of body weight (ICR mice, 4 consecutive days of intraperitoneal dosing): ≤ 15 mg/kg

Structure (SMILES): Fc1ccc(-c2nccc3ccc(-c4ccc5[nH]ccc5c4)cc23)cc1 [6c, 1-(4-Fluoro-phenyl)-7-(H-indol-5-yl)-isoquinoline]
- Resistance factor [10]: 1.7

Structure (SMILES): COc1ccc(-c2nc(C(=O)c3ccc(F)cc3)c[nH]2)cc1 [12cb, (4-fluorophenyl)(2-(4-methoxyphenyl)-1H-imidazol-4-yl)methanone]
- IC50 [11]: 44 ± 5 nM
- effect on microtubules in words [12]: microtubule fragmentation
- IC50 [13]: 25 ± 2 nM
- IC50 [14]: 12 ± 2 nM

Structure (SMILES): O=C(c1ccc(F)cc1)c1c[nH]c(-c2ccc(Cl)cc2)n1 [12fb, (2-(4-chlorophenyl)-1H-imidazol-4-yl)(4-fluorophenyl)methanone]
- IC50 [11]: 55 ± 4 nM
- tumor growth inhibition (TGI value) ([15]; C57BL/6 mice, 15 mg/kg, 13 days): 32%
- tumor growth inhibition (TGI value) ([15]; C57BL/6 mice, 45 mg/kg, 13 days): 82%
- IC50 [13]: 45 ± 2 nM
- IC50 ([7]; Homo sapiens, NCI/ADR-RES, Table 14B, MDR1 overexpressed, read-out: IC50 ± SEM, NCI/ADR-RES): 20 ± 6 nM
- P-gp substrate / multidrug resistance in words [16]: not substrates for P-gp
- well tolerated dose ([9]; SHO mice, 31 days): 25 mg/kg
- IC50 [14]: 54 nM

Structure (SMILES): CCc1ccc(-c2nc(C(=O)c3cc(OC)c(OC)c(OC)c3)c[nH]2)cc1 [12q, (2-(4-ethylphenyl)-1H-imidazol-4-yl)(3,4,5-trimethoxyphenyl)methanone]
- IC50 [17]: 1.4 nM
- IC50 ([18]; DU-145, Table 12, read-out: IC50 ± SEM, Du 145): 25 nM
- IC50 [19]: 107 ± 5 nM
- IC50 ([20]; Table 12, in parentheses in the Du 145 column, read-out: IC50, DU-145/TXR): 20 nM
- IC50 ([21]; PPC-1, Table 12, read-out: IC50 ± SEM, PPC-1 (converted)): 15 nM
- IC50 ([2]; read-out: IC50 ± SEM, PC-3, Table 12): 13 nM
- IC50 [16, 28]: 27 ± 3 nM

Structure (SMILES): COc1cc(C(=O)c2nc(-c3ccccc3)c[nH]2)cc(OC)c1OC [70a, (4-Phenyl-1H-imidazol-2-yl)(3,4,5-trimethoxyphenyl)methanone and (5-phenyl-1H-imidazol-2-yl)(3,4,5-trimethoxyphenyl)methanone]
- IC50 [22]: 6 nM
- IC50 [18, 29]: 21.5 nM
- IC50 [19]: 79 nM
- IC50 [20, 30]: 22.9 nM
- IC50 [21, 31]: 13 nM
- IC50 [2, 32]: 14 nM
- IC50 [16, 28]: 43 nM

Structure (SMILES): COc1cc(C(=O)c2nc(-c3ccccc3)cn2C)cc(OC)c1OC [70m, (1-Methyl-4-phenyl-1H-imidazol-2-yl)(3,4,5-trimethoxyphenyl)methanone]
- IC50 [23, 33]: 7.5 nM
- IC50 [18, 29]: 26 nM
- IC50 [20, 30]: 27 nM
- IC50 [21, 31]: 13 nM
- IC50 [2, 32]: 16 nM

Structure (SMILES): CCn1cc(-c2ccccc2)nc1C(=O)c1cc(OC)c(OC)c(OC)c1 [70n, (1-Ethyl-4-phenyl-1H-imidazol-2-yl)(3,4,5-trimethoxyphenyl)methanone]
- IC50 [22]: 29 nM
- IC50 [23, 33]: 20 nM
- IC50 [18, 29]: 66 nM
- IC50 [20, 30]: 66 nM
- IC50 [2, 32]: 25 nM

Structure (SMILES): COc1ccc(S(=O)(=O)Nc2cccnc2Nc2ccc(O)cc2)cc1 [ABT-751, reference compound]
- effect on microtubules in words [12]: microtubule fragmentation
- IC50 ([16]; Table 14B, MDR1 overexpressed, read-out: IC50 ± SEM, MDA-MB-435/LCC6MDR1): 577 ± 31 nM
- P-gp substrate / multidrug resistance in words [16]: not susceptible to MDR1, MRP, or BCRP
- IC50 [14]: 645 ± 153 nM

Structure (SMILES): COc1ccc(/C=C\c2cc(OC)c(OC)c(OC)c2)cc1O [CA4, Combretastatin A-4]
- permeability of endothelial cell monolayer in words [24]: increased permeability

Structure (SMILES): CN(C)/N=N/c1[nH]cnc1C(N)=O [DTIC, 5-(3,3,-dimethyl-1-triazenyl)-imidazole-4-carboxamide, reference compound]
- tumor volume reduction ([15]; C57/BL mice, 60 mg/kg i.p. daily, 14 days): 51%
- tumor growth inhibition (TGI) ([15]; C57BL/6 mice, 60 mg/kg, 13 days): 51%

Structure (SMILES): CC(=O)O[C@@]12CO[C@@H]1C[C@H](O)[C@@]1(C)C(=O)[C@H](O)C3=C(C)[C@@H](OC(=O)[C@H](O)[C@@H](NC(=O)OC(C)(C)C)c4ccccc4)C[C@@](O)([C@@H](OC(=O)c4ccccc4)[C@H]21)C3(C)C [docetaxel, reference compound]
- IC50 ([23]; read-out: IC50 PC-3/TxR): 17.7 ± 0.7 nM
- tumor growth inhibition (TGI) ([25]; i.v. 10 mg/kg on day 1 and 9): 14%
- tumor growth inhibition (TGI) ([25]; i.v. 20 mg/kg on day 1 and 9): 56%
- Tumor size End ([25]; PC-3/TxR xenograft, IV 10 mpk, day 1 and 9, day 19, […]): 1774 ± 183 mm^2
- IC50 ([2]; read-out: IC50, PC-3, Table 7): 6.3 ± 0.4 nM
- IC50 [2, 26]: 1.2 ± 0.1 nM
